Laboratory results as given in publication PMC5896955, “The signaling lipid sphingosine 1-phosphate regulates mechanical pain” (eLife, 2018).

Target: T1, S1P Receptor 3 (S1PR3) (Mus musculus, UniProt Q9Z0U9)
T1 construct: native receptor / S1PR3-mCherry fusion in cultured mouse DRG neurons
Test: Fura-2 calcium imaging of DRG neurons with S1PR3 knockout control; also S1PR3-dependent tail current inhibition ([…])
Assay type: cell-based

T1 sequence (Q9Z0U9 whole entry, the tested form may be a part): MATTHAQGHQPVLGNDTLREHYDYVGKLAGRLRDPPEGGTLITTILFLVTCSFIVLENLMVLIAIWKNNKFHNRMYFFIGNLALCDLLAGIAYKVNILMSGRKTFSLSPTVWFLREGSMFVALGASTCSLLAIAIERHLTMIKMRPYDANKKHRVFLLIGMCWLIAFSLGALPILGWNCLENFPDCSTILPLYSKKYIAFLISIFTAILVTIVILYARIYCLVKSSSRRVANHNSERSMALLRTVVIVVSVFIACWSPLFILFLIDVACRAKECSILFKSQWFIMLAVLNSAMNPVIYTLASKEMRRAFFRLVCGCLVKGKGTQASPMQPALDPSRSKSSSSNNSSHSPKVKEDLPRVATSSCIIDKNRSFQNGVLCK

For `CCCCCCCCCCCCC/C=C/[C@@H](O)[C@@H](N)COP(=O)(O)O` [S1P, Sphingosine 1-phosphate], the EC50 was 155 nM.
